Results as given in PubChem BioAssay (NCI).
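48-hour exposure; five concentrations; linearly interpolated endpoints. TGI is the concentration that stops growth completely.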

Columns and labels:
Assay in all cases: NCI-60 cell line screen, 48 h
A549 NSCLC = tested on: A549 NSCLC
CAKI-1 renal = tested on: CAKI-1 renal
EKVX NSCLC = tested on: EKVX NSCLC
HCC-2998 colon = tested on: HCC-2998 colon
HCT-116 colon = tested on: HCT-116 colon
HL-60(TB) leukemia = tested on: HL-60(TB) leukemia
KM12 colon = tested on: KM12 colon
LOX IMVI melanoma = tested on: LOX IMVI melanoma
MALME-3M melanoma = tested on: MALME-3M melanoma
MDA-N = tested on: MDA-N
NCI/ADR-RES ovarian = tested on: NCI/ADR-RES ovarian
OVCAR-3 ovarian = tested on: OVCAR-3 ovarian
RXF 393 renal = tested on: RXF 393 renal
SK-MEL-2 melanoma = tested on: SK-MEL-2 melanoma
U251 CNS = tested on: U251 CNS
UACC-257 melanoma = tested on: UACC-257 melanoma

SMILES | TGI (A549 NSCLC) [µM] | TGI (CAKI-1 renal) [µM] | TGI (EKVX NSCLC) [µM] | TGI (HCC-2998 colon) [µM] | TGI (HCT-116 colon) [µM] | TGI (HL-60(TB) leukemia) [µM] | TGI (KM12 colon) [µM] | TGI (LOX IMVI melanoma) [µM] | TGI (MALME-3M melanoma) [µM] | TGI (MDA-N) [µM] | TGI (NCI/ADR-RES ovarian) [µM] | TGI (OVCAR-3 ovarian) [µM] | TGI (RXF 393 renal) [µM] | TGI (SK-MEL-2 melanoma) [µM] | TGI (U251 CNS) [µM] | TGI (UACC-257 melanoma) [µM]
CCOC(=O)C1=NNC(C(=O)c2ccccc2)C1c1ccccc1 (stereo unspecified) | 41.2 | 3.25 | 36.6 | 3.92 | 7 | 2.86 | 19.8 | 10.6 | 4.77 | 3.98 | 12.3 | 11 | 3.78 | 31.2 | 8.48 | 6.74
O=C1NC(N2CCCCC2)=N/C1=C\c1ccco1 | > 100 | > 100 | > 100 | > 100 | > 100 | > 100 | > 100 | > 100 | > 100 | > 100 | > 100 | > 100 | > 100 | > 100 | > 100 | > 100
COc1ccc(C2=NN(C(=O)c3ccc(Cl)cc3)C(O)(c3cc(F)c(Cl)cc3Cl)C2)cc1 (stereo unspecified) | > 100 | > 100 | > 100 | > 100 | > 100 | > 100 | > 100 | > 100 | > 100 | > 100 | > 100 | > 100 | > 100 | > 100 | > 100 | > 100
C1=Cc2cccc3occ(c23)C=C1 | > 100 | > 100 | > 100 | > 100 | > 100 | 48.2 | > 100 | 33.8 | > 100 | > 100 | > 100 | > 100 | 88.3 | > 100 | > 100 | > 100
Cc1ccc2c(c1)CC1(C2)Cc2ccc(C)cc2C1=O (stereo unspecified) | > 100 | 87.2 | 88.7 | 85 | 71.9 | 63.4 | 53.6 | 36.4 | 43.8 | 73.1 | 62.6 | > 100 | 54.4 | 47.1 | > 100 | 48.1
N#CC(C#N)=Cn1c(=S)[nH]c2ccc([N+](=O)[O-])cc21 | > 100 | > 100 | > 100 | > 100 | > 100 | > 100 | > 100 | > 100 | > 100 | > 100 | > 100 | > 100 | > 100 | > 100 | > 100 | > 100
Cc1ccc(S(=O)(=O)NNC(=O)Nc2ccc([N+](=O)[O-])cc2)cc1 | > 100 | > 100 | > 100 | > 100 | > 100 | > 100 | > 100 | > 100 | > 100 | > 100 | > 100 | 78.2 | > 100 | > 100 | > 100 | > 100
O=C(O)CCC(NC(=O)c1ccc(CNc2nc3cc(C(F)(F)F)ccc3nc2C(=O)O)cc1)C(=O)O (stereo unspecified) | > 100 | > 100 | > 100 | > 100 | > 100 | > 100 | > 100 | > 100 | > 100 | > 100 | > 100 | > 100 | > 100 | > 100 | > 100 | > 100
COC(=O)[C@@H]1[C@H]2CC[C@]3(C)[C@@H](OC(C)=O)CC[C@H]3[C@@H]2CC[C@H]1C(C)=O | > 100 | > 100 | > 100 | > 100 | > 100 | > 100 | > 100 | > 100 | > 100 | > 100 | > 100 | > 100 | > 100 | > 100 | > 100 | > 100
CCOC(=O)CCc1ccc(NC(=O)/C=C/c2ccc([N+](=O)[O-])o2)cc1 | 15.1 | 6.54 | > 100 | 7.61 | 2.01 | 0.481 | 4.43 | 1.54 | 3.14 | 2.95 | 5.37 | 2.88 | 2.75 | 4.82 | 6.42 | 2.71
COC(=O)CNC(=O)CSc1nnc(COc2ccc(Cl)cc2)n1-c1ccccc1 | > 100 | 32.2 | > 100 | 59.1 | > 100 | > 100 | > 100 | > 100 | > 100 | 42.2 | > 100 | > 100 | 51.1 | 50.7 | > 100 | 75.8
COC(=O)/C(C#N)=C/c1cc(C(C)(C)C)c(O)c(C(C)(C)C)c1 | > 100 | > 27.4 | 11.9 | 7.8 | 10.5 | 4.47 | 19.9 | 17 | 20.4 | 13.3 | 9.65 | 5.55 | 14.8 | 4.92 | 11.5 | 6.72
COC1C(=O)N(SC)C1c1ccccc1Cl (stereo unspecified) | > 100 | > 100 | 64.6 | 28.8 | 24.4 | 42.2 | > 100 | > 100 | 44.4 | > 100 | > 100 | 34.3 | > 100 | > 100 | > 100 | > 100
N#Cc1c(N)c2c(c(-c3ccccc3)c1-c1ccccc1)C(=O)N(O)C2=O | > 100 | > 100 | > 100 | > 100 | 82.4 | > 100 | 83.5 | > 100 | > 100 | > 100 | > 100 | > 100 | 44.3 | > 100 | > 100 | > 100
C=CCN1C(=O)CS/C1=N\NC(=O)CSc1nc2ccccc2c(=O)n1CC | > 100 | > 100 | > 100 | > 100 | > 100 | > 100 | > 100 | > 100 | > 100 | > 100 | > 100 | > 100 | > 100 | > 100 | > 100 | > 100
Cc1cc(S(=O)(=O)NC2=NCC(C)(C)CN2)c(S)cc1Cl | 49.7 | > 100 | > 100 | > 100 | 75.8 | 62.1 | > 100 | 31.2 | > 100 | 83.4 | > 100 | > 100 | > 100 | > 100 | 89 | > 100
